Values joined by “and” are separate entries in the source; they are usually repeats but may differ in a detail not shown here. Equal values may be shown once.
Key:
Oral bioavailability = details: in vivo
Text: In order to measure bioavailability in vivo, a compound may be administered to a test animal (e.g. mouse or rat) both intraperitoneally (i.p.) or intravenously (i.v.) and orally (p.o.) and blood samples are taken at regular intervals to examine how the plasma concentration of the drug varies over time. The time course of plasma concentration over time can be used to calculate the absolute bioavailability of the compound as a percentage using standard models. An example of a typical protocol is described below. […] The time-course of plasma or whole blood concentrations can then be used to derive key parameters such as the area under the plasma or blood concentration-time curve (AUC-which is directly proportional to the total amount of unchanged drug that reaches the systemic circulation), the maximum (peak) plasma or blood drug concentration, the time at which maximum plasma or blood drug concentration occurs (peak time), additional factors which are used in the accurate determination of bioavailability include: the compound's terminal half-life, total body clearance, steady-state volume of distribution and F %. These parameters are then analyzed by non-compartmental or compartmental methods to give a calculated percentage bioavailability, for an example of this type of method see Gallant-[…] et al, 2000 and […] et al, 1998, and references therein.

[1] = Whole blood concentrations after IP administration to mice (LC-MS/MS); assay type: in vivo, mouse
Experimental: Shown below are whole blood concentrations following administration of the compound of Formula II to mice. The compound of Formula II was administered to mice at 2 mg/kg or 10 mg/kg for three days and the concentration of the compound in whole blood determined. These determinations were made using protein precipitation, liquid chromatography (LC), and mass spectrometry (MS/MS). Ten μl aliquots of whole blood and matrix calibration standards were distributed in a 96-well plate; 10 μl aliquots of blank matrix for matrix blanks and control blanks were included as controls. Ten μl of water was added to each sample followed by vortexing. One hundred sixty […] of internal standard was added to each sample except the matrix blanks; 160 μl 70:30 water:acetonitrile (ACN) was added to matrix blanks. This was followed by a […]. One hundred fifty μl of the resultant supernatant was then transferred to a new 96-well plate and the samples blown to dryness at 35° C. The resultant product was then reconstituted with 90 μl ACN.

Question: What does the source list for `CO[C@H]1C[C@@H]2CC[C@@H](C)[C@@](O)(C2)C(=O)C(=O)N2CCCC[C@H]2C(=O)O[C@H]([C@H](C)C[C@H]2C[C@H]3C[C@@H]2C[C@@H]3O)CC(=O)[C@H](C)/C=C(\C)[C@@H](O)[C@@H](OC)C(=O)[C@H](C)C[C@H](C)/C=C/C=C/C=C/1C` [Formula II, C37-[(1R,2S,4R,5S)-5-hyhroxybicyclo[2.2.1]heptane] rapamycin]?
Answer: bioavailability (Oral bioavailability): ~47%; Formula II Concentrations in Mouse Whole Blood ([1]; 2 mg/kg IP QD x 3 days, Day 1, 1.00 h, individual animals 7, 8, 9): 452 ng/mL and 380 ng/mL and 317 ng/mL; Formula II Concentrations in Mouse Whole Blood, Mean ([1]; 2 mg/kg IP QD x 3 days, Day 1, 1.00 h): 383 ng/mL; Formula II Concentrations in Mouse Whole Blood ([1]; 2 mg/kg IP QD x 3 days, Day 1, 2.00 h, individual animals 7, 8, 9): 415 ng/mL (2×) and 378 ng/mL; Formula II Concentrations in Mouse Whole Blood, Mean ([1]; 2 mg/kg IP QD x 3 days, Day 1, 2.00 h): 403 ng/mL; Formula II Concentrations in Mouse Whole Blood ([1]; 2 mg/kg IP QD x 3 days, Day 1, 6.00 h, individual animals 7, 8, 9): 382 ng/mL and 520 ng/mL and 490 ng/mL; Formula II Concentrations in Mouse Whole Blood, Mean ([1]; 2 mg/kg IP QD x 3 days, Day 1, 6.00 h): 464 ng/mL; Formula II Concentrations in Mouse Whole Blood ([1]; 2 mg/kg IP QD x 3 days, Day 1, 24.0 h, individual animals 7, 8, 9): 12.2 ng/mL and 18.4 ng/mL and 14.7 ng/mL; Formula II Concentrations in Mouse Whole Blood, Mean ([1]; 2 mg/kg IP QD x 3 days, Day 1, 24.0 h): 15.1 ng/mL; Formula II Concentrations in Mouse Whole Blood ([1]; 2 mg/kg IP QD x 3 days, Day 2, 1.00 h, individual animals 7, 8, 9): 481 ng/mL and 208 ng/mL and 524 ng/mL; Formula II Concentrations in Mouse Whole Blood, Mean ([1]; 2 mg/kg IP QD x 3 days, Day 2, 1.00 h): 404 ng/mL; Formula II Concentrations in Mouse Whole Blood ([1]; 2 mg/kg IP QD x 3 days, Day 2, 2.00 h, individual animals 7, 8, 9): 501 ng/mL and 233 ng/mL and 570 ng/mL; Formula II Concentrations in Mouse Whole Blood, Mean ([1]; 2 mg/kg IP QD x 3 days, Day 2, 2.00 h): 435 ng/mL; Formula II Concentrations in Mouse Whole Blood ([1]; 2 mg/kg IP QD x 3 days, Day 2, 6.00 h, individual animals 7, 8, 9): 553 ng/mL and 632 ng/mL and 552 ng/mL; Formula II Concentrations in Mouse Whole Blood, Mean ([1]; 2 mg/kg IP QD x 3 days, Day 2, 6.00 h): 579 ng/mL; Formula II Concentrations in Mouse Whole Blood ([1]; 2 mg/kg IP QD x 3 days, Day 2, 24.0 h, individual animals 7, 8, 9): 15.3 ng/mL and 80.6 ng/mL and 35.2 ng/mL; Formula II Concentrations in Mouse Whole Blood, Mean ([1]; 2 mg/kg IP QD x 3 days, Day 2, 24.0 h): 43.7 ng/mL; Formula II Concentrations in Mouse Whole Blood ([1]; 2 mg/kg IP QD x 3 days, Day 3, 1.00 h, individual animals 7, 8, 9): 628 ng/mL and 726 ng/mL and 600 ng/mL; Formula II Concentrations in Mouse Whole Blood, Mean ([1]; 2 mg/kg IP QD x 3 days, Day 3, 1.00 h): 651 ng/mL; Formula II Concentrations in Mouse Whole Blood ([1]; 2 mg/kg IP QD x 3 days, Day 3, 2.00 h, individual animals 7, 8, 9): 478 ng/mL and 489 ng/mL and 535 ng/mL; Formula II Concentrations in Mouse Whole Blood, Mean ([1]; 2 mg/kg IP QD x 3 days, Day 3, 2.00 h): 501 ng/mL; Formula II Concentrations in Mouse Whole Blood ([1]; 2 mg/kg IP QD x 3 days, Day 3, 6.00 h, individual animals 7, 8, 9): 416 ng/mL and 745 ng/mL and 604 ng/mL; Formula II Concentrations in Mouse Whole Blood, Mean ([1]; 2 mg/kg IP QD x 3 days, Day 3, 6.00 h): 588 ng/mL; Formula II Concentrations in Mouse Whole Blood ([1]; 2 mg/kg IP QD x 3 days, Day 3, 24.0 h, individual animals 7, 8, 9): 17.6 ng/mL and 59.6 ng/mL and 48.6 ng/mL; Formula II Concentrations in Mouse Whole Blood, Mean ([1]; 2 mg/kg IP QD x 3 days, Day 3, 24.0 h): 41.9 ng/mL; concentrations in whole blood over time (in words) ([1]; 2 mg/kg or 10 mg/kg IP QD for three days, mice): sufficient concentrations in whole blood over time; Formula II Concentrations in Mouse Whole Blood ([1]; 10 mg/kg IP QD x 3 days, Day 1, 1.00 h, individual animals 10, 11, 12): 560 ng/mL and 641 ng/mL and 769 ng/mL; Formula II Concentrations in Mouse Whole Blood, Mean ([1]; 10 mg/kg IP QD x 3 days, Day 1, 1.00 h): 657 ng/mL; Formula II Concentrations in Mouse Whole Blood ([1]; 10 mg/kg IP QD x 3 days, Day 1, 2.00 h, individual animals 10, 11, 12): 793 ng/mL; Formula II Concentrations in Mouse Whole Blood ([1]; 10 mg/kg IP QD x 3 days, Day 1, 6.00 h, individual animals 10, 11, 12): 1000 ng/mL and 1950 ng/mL and 544 ng/mL

From patent US20210369684A1 (MOUNT TAM THERAPEUTICS, INC., priority 2018, published 2021)
